# Patent US20260226084A1, “DUAL RAF AND TUBULIN INHIBITORS AND METHODS OF USE THEREOF” (Deciphera Pharmaceuticals, LLC, priority 2023, published 2026)
# Where two headings read alike, the source gives them in different places.
# Assays:
# [1] = target: T1, C-Raf kinase (SEQ ID NO: 2) (Homo sapiens, UniProt P04049, Y340D/Y341D); assay: Biochemical Assay for C-Raf (coupled pyruvate kinase/lactate dehydrogenase assay); conditions: 1 mM ATP; read-out: CRAF (inhibition of biochemical activity, IC50)
# T1 construct: C-Raf residues 306-end; Y340D, Y341D with; GST (N); purchased Sigma
# HCT-116 cells = assay: HCT-116 Cell Proliferation Assay; type: cell-based; conditions: Table 2, read-out: Inhibition of cell proliferation in HCT-116 (IC50 class)
# How it was run: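 IC50 values come from resazurin fluorescence (540 nm excitation, 600 nm emission) added for 4 to 5 h after compound treatment. Treatment: serially diluted compound in triplicate on 375 HCT-116 cells per well in complete McCoy's 5A/10% FBS, 67 to 72 hours, 37 °C, 5% CO2.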
# HPAF-II cells = assay: HPAF-II Cell Proliferation Assay; type: cell-based; conditions: HPAF-II cells, Table 2, read-out: Inhibition of cell proliferation in HPAF-II (IC50 class)
# How it was run: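 Viability read-out was resazurin fluorescence (540 nm excitation, 600 nm emission), developed 18–24 h after a 115–120 h compound exposure of 750 HPAF-II cells per well in MEM/10% FBS at 37 °C. Compound was tested as a serial dilution in triplicate, and IC50 values were calculated.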
# MiaPaca-2 cells = assay: MiaPaca-2 Cell Proliferation Assay; type: cell-based; conditions: Table 2, read-out: Inhibition of cell proliferation in MiaPaca-2 (IC50 class)
# How it was run: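 Viability was read as resazurin fluorescence (540 nm excitation, 600 nm emission) after 5–6 h with dye. Compounds were tested as serial dilutions in triplicate, with IC50 derived from the dose–response.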
# [2] = target: T2, B-Raf kinase (SEQ ID NO: 1) (Homo sapiens, UniProt P15056); assay: Biochemical Assay for B-Raf (coupled pyruvate kinase/lactate dehydrogenase assay); conditions: 1 mM ATP; read-out: BRAF (inhibition of biochemical activity, IC50)
# T2 construct: GST (N); purchased Sigma
# Pa16c cells = assay: Pa16c Cell Proliferation Assay; type: cell-based; conditions: Table 2, read-out: Inhibition of cell proliferation in Pa16c (IC50 class)
# How it was run: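 Proliferation read-out: resazurin fluorescence (540 nm excitation, 600 nm emission) after an extra 18 to 24 h. Before that, compound dilution series (triplicate) stayed on 750 Pa16c cells/well in complete DMEM/10% FBS for 67 to 72 h at 37° C. IC50 values derived from the curves.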
# [3] = Homo sapiens, HCT-116, HCT-116 cells
# [4] = Homo sapiens, MIA PaCa-2, MiaPaca-2 cells
# T1 sequence (P04049 307-648 Y340D/Y341D): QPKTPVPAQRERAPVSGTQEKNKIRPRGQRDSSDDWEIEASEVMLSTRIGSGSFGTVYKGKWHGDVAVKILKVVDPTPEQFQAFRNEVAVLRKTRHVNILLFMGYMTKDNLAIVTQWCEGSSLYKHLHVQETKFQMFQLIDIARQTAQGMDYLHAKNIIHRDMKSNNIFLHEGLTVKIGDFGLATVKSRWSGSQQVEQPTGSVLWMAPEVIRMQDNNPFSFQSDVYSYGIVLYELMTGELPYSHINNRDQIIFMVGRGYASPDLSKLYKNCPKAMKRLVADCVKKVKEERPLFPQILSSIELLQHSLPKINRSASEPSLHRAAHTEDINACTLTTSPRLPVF
# T2 sequence (P15056 416-766): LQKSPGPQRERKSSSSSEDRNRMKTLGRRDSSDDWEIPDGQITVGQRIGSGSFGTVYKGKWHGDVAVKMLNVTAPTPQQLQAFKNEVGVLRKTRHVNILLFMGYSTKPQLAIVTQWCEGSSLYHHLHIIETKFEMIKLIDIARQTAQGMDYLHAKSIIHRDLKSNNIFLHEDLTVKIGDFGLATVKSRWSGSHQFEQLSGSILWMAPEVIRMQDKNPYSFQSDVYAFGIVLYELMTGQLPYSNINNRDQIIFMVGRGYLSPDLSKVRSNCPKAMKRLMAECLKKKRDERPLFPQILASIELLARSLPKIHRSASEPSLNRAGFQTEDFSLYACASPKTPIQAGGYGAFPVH
Structure (SMILES),IC50 [1] [nM],IC50 (HCT-116 cells; HCT-116 cells) [nM],IC50 (MiaPaca-2 cells; MiaPaca-2 cells) [nM],IC50 [2] [nM],IC50 (HCT-116 cells; [3]) [nM],IC50 (MiaPaca-2 cells; [4]) [nM],IC50 (HPAF-II cells) [nM],IC50 (Pa16c cells) [nM],"IC50 (HPAF-II cells; Homo sapiens, HPAF-II) [nM]"
Cc1ccc(NC(=O)c2cnc(C(F)(F)F)nc2)cc1-c1ccnc(-c2cn[nH]c2)c1 [Example 126],1000 to 10000,–,–,1000 to 10000,< 100,< 100,–,100 to 500,100 to 500
Cc1ccc(NC(=O)c2cc(C(F)(F)F)cnn2)cc1-c1ccnc(-c2ccnc(NC(=O)C3(C)CCC3)c2)c1 [Example 7],100 to 500,–,–,500 to 1000,100 to 500,100 to 500,–,100 to 500,100 to 500
Cc1ccc(NC(=O)c2cc(C3CC3)cnn2)cc1-c1ccnc(-c2ccoc2)c1 [Example 147],100 to 500,–,–,100 to 500,100 to 500,100 to 500,–,100 to 500,100 to 500
CC(=O)Nc1cc(-c2cc(-c3cc(NC(=O)c4ccc(C(F)(F)F)nn4)ccc3C)ccn2)ccn1 [Example 13],100 to 500,–,–,500 to 1000,< 100,< 100,–,< 100,< 100
Cc1ccc(NC(=O)c2cccnn2)cc1-c1ccnc(-c2ccnc(NC(=O)C3CC3)c2)c1 [Example 83],100 to 500,–,–,1000 to 10000,1000 to 10000,1000 to 10000,–,1000 to 10000,1000 to 10000
Cc1ccc(NC(=O)c2cc(C#N)cnn2)cc1-c1cc(N[C@H](C)CO)nc(-c2ccnc(NC(=O)C3CC3)c2)c1 [Example 151],500 to 1000,–,–,500 to 1000,1000 to 10000,1000 to 10000,–,1000 to 10000,1000 to 10000
Cc1ccc(NC(=O)c2cc(C(F)(F)F)cnn2)cc1-c1ccnc(-c2ccnc(NCC(F)(F)F)c2)c1 [Example 53],500 to 1000,–,–,500 to 1000,100 to 500,100 to 500,–,1000 to 10000,100 to 500
Cc1ccc(NC(=O)c2cc(C(C)(C)F)cnn2)cc1-c1cncc(-c2cc(NC(=O)C3CC3)ncn2)c1 [Example 62],< 100,–,–,< 100,< 100,100 to 500,–,500 to 1000,< 100
Cc1ccc(NC(=O)c2cc(OC(F)F)cnn2)cc1-c1ccnc(-c2ccnc(NC(=O)C3CC3)c2)c1 [Example 134],< 100,–,–,< 100,100 to 500,500 to 1000,–,100 to 500,1000 to 10000
CNc1cc(-c2cc(-c3cc(NC(=O)c4cc(C(F)(F)F)cnn4)ccc3C)ccn2)ccn1 [Example 50],100 to 500,–,–,< 100,100 to 500,< 100,–,100 to 500,100 to 500
Cc1ccc(NC(=O)c2cc(C(C)(F)F)cnn2)cc1-c1ccnc(-c2cnn(C)c2)c1 [Example 150],< 100,–,–,100 to 500,100 to 500,100 to 500,–,500 to 1000,100 to 500
Cc1ccc(NC(=O)c2cc(C(F)(F)F)cnn2)cc1-c1ccnc(-c2ccnc(NC(=O)C3(C)CC3)c2)c1 [Example 41],< 100,–,–,100 to 500,100 to 500,100 to 500,–,< 100,1000 to 10000
Cc1ccc(NC(=O)c2cc(C3CC3)cnn2)cc1-c1cc(-c2ccnc(NC(=O)C3CC3)c2)nc(NCCO)n1 [Example 15],< 100,–,–,< 100,< 100,100 to 500,–,1000 to 10000,1000 to 10000

# Further lines, with some results ahead:
IC50 [1] [nM],IC50 (HCT-116 cells; HCT-116 cells) [nM],IC50 (MiaPaca-2 cells; MiaPaca-2 cells) [nM],IC50 [2] [nM],IC50 (HCT-116 cells; [3]) [nM],IC50 (MiaPaca-2 cells; [4]) [nM],Structure (SMILES),IC50 (HPAF-II cells) [nM],IC50 (Pa16c cells) [nM],"IC50 (HPAF-II cells; Homo sapiens, HPAF-II) [nM]"
< 100,< 100,100 to 500,< 100,–,–,CC(=O)Nc1cc(-c2cc(-c3cc(NC(=O)c4cc(C(F)(F)F)cnn4)ccc3C)ccn2)ccn1 [Example 93],< 100,1000 to 10000,–
< 100,–,–,< 100,< 100,< 100,CC(=O)Nc1cc(-c2cc(-c3cc(NC(=O)c4ccc(C(F)(F)F)nc4)ccc3C)ccn2)ccn1 [Example 24],–,100 to 500,< 100
< 100,–,–,< 100,500 to 1000,100 to 500,Cc1ccc(NC(=O)c2cc(Br)cnn2)cc1-c1ccnc(-c2ccnc(NC(=O)C3CC3)c2)c1 [Example 130],–,500 to 1000,1000 to 10000
< 100,–,–,< 100,< 100,< 100,Cc1ccc(NC(=O)c2cc(C(F)(F)F)cnn2)cc1-c1cc(OCCO)nc(-c2cn[nH]c2)c1 [Example 116],–,< 100,< 100
< 100,–,–,< 100,< 100,< 100,Cc1ccc(NC(=O)c2cc(C(F)(F)F)cnn2)cc1-c1cc(NCCO)nc(-c2ccnc(NC(=O)C3CC3)c2)c1 [Example 113],–,< 100,< 100
< 100,–,–,< 100,100 to 500,100 to 500,Cc1ccc(NC(=O)c2ccc(C(F)F)nc2)cc1-c1ccnc(-c2ccnc(NC(=O)C3CC3)c2)n1 [Example 70],–,1000 to 10000,100 to 500
< 100,–,–,< 100,100 to 500,500 to 1000,Cc1ccc(NC(=O)c2cc(Cl)cnn2)cc1-c1ccnc(-c2ccnc(NC(=O)C3CC3)c2)c1 [Example 40],–,500 to 1000,500 to 1000
< 100,–,–,< 100,100 to 500,100 to 500,Cc1ccc(NC(=O)c2cc(C(F)(F)F)cnn2)cc1-c1ccnc(-c2ccnc(NC(=O)C3CCC3)c2)c1 [Example 8],–,< 100,< 100
< 100,–,–,< 100,< 100,< 100,Cc1ccc(NC(=O)c2cc(C(F)(F)F)cnn2)cc1-c1ccnc(-c2ccnc(NC=O)c2)c1 [Example 110],–,< 100,< 100
< 100,–,–,< 100,500 to 1000,1000 to 10000,COCC(=O)Nc1cc(-c2nccc(-c3cc(NC(=O)c4cc(C(F)(F)F)cnn4)ccc3C)n2)ccn1 [Example 10],–,1000 to 10000,500 to 1000
< 100,–,–,< 100,1000 to 10000,1000 to 10000,Cc1ccc(NC(=O)c2cc3c(nn2)CCC3)cc1-c1ccnc(-c2ccnc(NC(=O)C3CC3)c2)c1 [Example 98],–,1000 to 10000,1000 to 10000
< 100,–,–,< 100,< 100,100 to 500,Cc1ccc(NC(=O)c2cncc(C(C)(C)C#N)c2)cc1-c1cncc(-c2ccnc(NC(=O)C3CC3)c2)n1 [Example 108],–,1000 to 10000,100 to 500
< 100,–,–,< 100,< 100,1000 to 10000,Cc1ccc(NC(=O)c2cncc(C(F)(F)F)n2)cc1-c1cncc(-c2cc(NC(=O)C3CC3)ncn2)c1 [Example 61],–,1000 to 10000,1000 to 10000
< 100,–,–,< 100,100 to 500,500 to 1000,Cc1ccc(NC(=O)c2cncc(C(C)(F)F)c2)cc1-c1ccnc(-c2ccnc(NC(=O)C3CC3)c2)c1 [Example 82],–,1000 to 10000,500 to 1000
